Experimental data published in patent US20240376154A1, “BIS-INTERCALATING PEPTIDES, CONJUGATES AND METHODS OF USE” (ZYMEWORKS BC INC., priority 2023, published 2024).

How the values were obtained:
[1] = Lipophilicity by experimental HPLC retention time; type: physicochemical; settings: HPLC retention time as measure of lipophilicity; C18, 10 to 90% CH3CN/H2O with 0.1% FA over 25 min
Description: The ability to kill neighboring cells (i.e. bystander effect) is an important property for ADC payloads. For a payload comprising a compound of Formula I to be capable of bystander killing, membrane permeability (or transport) is required and the ability of compounds of Formula I to cross cell membranes and exert a cytotoxic effect was expected to be heavily influenced by lipophilicity.
Compounds were analyzed using an Agilent 1260 HPLC (Agilent Technologies, Inc., Santa Clara, CA) equipped with a Diode array detector and using a Phenomenex Kinetex EVO C18 150×4.6, 2.6 μm column (Phenomenex, Torrance, CA), eluting with 10 to 90% CH3CN/H2O with 0.1% FA over 25 min.

[2] = tested on: tumour cells (at least 4 of a panel of ovarian, breast, lung, pancreatic, placenta, colon cell lines); test: In vitro cytotoxicity (cell proliferation, CellTiter-Glo), average over tumour cell line panel; type: cell-based; settings: average pIC50 on all cell lines tested; 5 nights incubation; CellTiter-Glo
Description: The ability of representative compounds of Formula I to inhibit proliferation of tumour cells in vitro was evaluated in at least 4 of the following cell lines: OVCAR-3 (ovarian, ATCC), SKOV-3 (ovarian, ATCC), IGROV-1 (ovarian, national research council of Canada (NRC)), OV-90 (ovarian, ATCC), OVKATE (Ovarian, Japanese Collection of Research Bioresources (JCRB) (JCRB1044)), JIMT-1 (breast, NRC), SK-BR-3 (breast, ATCC), T-47D (breast, ATCC), ZR-75-1 (breast, ATCC), MDA-MB-468 (breast, AddexBio), BT-20 (breast, ATCC), BT-474 (breast, NRC), MDA-MB-175 (breast, AddexBio), A549 (lung, collaborator), NCI-H226 (lung, NRC), NCI-H661 (lung, NRC), NCI-H1573 (lung, ATCC). NCI-H1563 (lung, ATCC), H358 (lung, collaborator), EBC-1 (lung, Xenotech), H1299 (lung, NRC), NCI-H292 (lung, ATCC), HCC817 (lung, ATCC), NCI-H441 (lung, ATCC), MIA-PaCa-2 (pancreatic, ATCC), BxPC-3 (pancreatic, ATCC), Panc-1 (pancreatic, ATCC), AsPC-1 (pancreatic, ATCC), JEG-3 (placenta, AddexBio), HT-29 (colon, ATCC).
Cells were cultured per vendor instructions and in log-phase growth were detached by brief incubation in 0.05% trypsin, then resuspended in respective culturing media at 20,000 cells/mL (except for ZR-75 cells, which were resuspended at 10,000 cells/mL). 50 μL/well (˜1000 cells/well) were transferred to sterile tissue culture (TC)-treated 384-well plates (ThermoFisher Scientific, Catalogue #164610) and incubated overnight at 37° C. with 5% CO2 to allow the cells to adhere to the plate surface. The next day, in a sterile, V-bottom, 96-well plate, test articles were titrated 1:3 in complete growth medium, creating a 10-point dose response titration with compounds at 3.5-times the desired final concentration. 20 μL from each dilution were added to the 384-well plate containing the seeded cells and these plates were incubated at 37° C. with 5% CO2 for 5 nights. Cell viability was quantified by first incubating with 15 μL/well of CellTiter-Glo® (Promega, Catalogue #G7572) for 30 minutes, then measuring luminescence with a microplate luminometer (BioTek® Synergy™ H1 Microplate Reader). IC50 values were determined by GraphPad Prism (GraphPad Software, San Diego, CA).
The results are presented in Table 7.1 and discussed in Example 7. Table 7.1 presents the results as average pIC50 values. pIC50=−log (IC50), thus, for example, pIC50=9 is equivalent to IC50=1 nM, and pIC50=6 is equivalent to IC50=1 μM.

[3] = amide bond; 32-membered ring

| Compound | HPLC [1] | pIC50 (average) [2] | ring closure, isolated yield [3] |
| --- | --- | --- | --- |
| CC(C)[C@H]1C(=O)NC[C@@H](NC(=O)c2nc3ccccc3cc2O)C(=O)N2CCCC[C@H]2C(=O)NCC(=O)N(C)CC(=O)N(C)[C@@H](c2ccccc2)C(=O)NC[C@@H](NC(=O)c2nc3ccccc3cc2O)C(=O)N2CCCC[C@H]2C(=O)NCC(=O)N(C)CC(=O)N1C [Compound 103, N,N′-((7R,11S,19aS,26R,30S,38aS)-11-isopropyl-12,15,31,34-tetramethyl-6,10,13,16,19,25,29,32,35,38-decaoxo-30-phenylhexatriacontahydro-2H,6H-dipyrido[1,2-a:1′,2′-q][1,4,7,10,13,17,20,23,26,29]decaazacyclodotriacontine-7,26-diyl)bis(3-hydroxyquinoline-2-carboxamide)] | 17.2 min | 7.3 |  |
| CC(C)[C@H]1C(=O)NC[C@@H](NC(=O)c2nc3ccccc3cc2O)C(=O)N2CCCC[C@H]2C(=O)NCC(=O)N(C)CC(=O)N(C)C2(CC2)C(=O)NC[C@@H](NC(=O)c2nc3ccccc3cc2O)C(=O)N2CCCC[C@H]2C(=O)NCC(=O)N(C)CC(=O)N1C [Compound 109, N,N′-((7′R,19a'S,26′R,30'S,38a'S)-30′-isopropyl-12′,15′,31′,34′-tetramethyl-6′,10′,13′,16′,19′,25′,29′,32′,35′,38′-decaoxotetratriacontahydro-2′H,6′H,12′H-spiro[cyclopropane-1,11′-dipyrido[1,2-a:1′,2′-q][1,4,7,10,13,17,20,23,26,29]decaazacyclodotriacontine]-7′,26′-diyl)bis(3-hydroxyquinoline-2-carboxamide)] | 15.4 min | 7.77 |  |
| CC(C)[C@H]1C(=O)NC[C@@H](NC(=O)c2nc3ccccc3cc2O)C(=O)N2CCCC[C@H]2C(=O)NCC(=O)N(C)CC(=O)N(C)C(C)(C)C(=O)NC[C@@H](NC(=O)c2nc3ccccc3cc2O)C(=O)N2CCCC[C@H]2C(=O)NCC(=O)N(C)CC(=O)N1C [Compound 115, N,N′-((7R,19aS,26R,30S,38aS)-30-isopropyl-11,11,12,15,31,34-hexamethyl-6,10,13,16,19,25,29,32,35,38-decaoxohexatriacontahydro-2H,6H-dipyrido[1,2-a:1′,2′-q][1,4,7,10,13,17,20,23,26,29]decaazacyclodotriacontine-7,26-diyl)bis(3-hydroxyquinoline-2-carboxamide)] | 15.8 min | Inactive |  |
| CC(C)[C@H]1C(=O)NC[C@@H](NC(=O)c2nc3ccccc3cc2O)C(=O)N2CCCC[C@H]2C(=O)NCC(=O)N(C)CC(=O)N(C)C2(CCC2)C(=O)NC[C@@H](NC(=O)c2nc3ccccc3cc2O)C(=O)N2CCCC[C@H]2C(=O)NCC(=O)N(C)CC(=O)N1C [Compound 121, N,N′-((7′R,19a'S,26′R,30'S,38a'S)-30′-isopropyl-12′,15′,31′,34′-tetramethyl-6′,10′,13′,16′,19′,25′,29′,32′,35′,38′-decaoxotetratriacontahydro-2′H,6′H,12′H-spiro[cyclobutane-1,11′-dipyrido[1,2-a:1′,2′-q][1,4,7,10,13,17,20,23,26,29]decaazacyclodotriacontine]-7′,26′-diyl)bis(3-hydroxyquinoline-2-carboxamide)] | 17.0 min | 8.18 |  |
| CC[C@H](C)[C@H]1C(=O)NC[C@@H](NC(=O)c2nc3ccc(Br)cc3cc2O)C(=O)N2CCCC[C@H]2C(=O)NCC(=O)N(C)CC(=O)N(C)[C@@H]([C@@H](C)CC)C(=O)NC[C@@H](NC(=O)c2nc3ccc(Br)cc3cc2O)C(=O)N2CCCC[C@H]2C(=O)NCC(=O)N(C)CC(=O)N1C [Compound 127, N,N′-((7R,11S,19aS,26R,30S,38aS)-11,30-di((S)-sec-butyl)-12,15,31,34-tetramethyl-6,10,13,16,19,25,29,32,35,38-decaoxohexatriacontahydro-2H,6H-dipyrido[1,2-a:1′,2′-q][1,4,7,10,13,17,20,23,26,29]decaazacyclodotriacontine-7,26-diyl)bis(6-bromo-3-hydroxyquinoline-2-carboxamide)] | 21.0 min | 8.7 |  |
| CCN1C(=O)CN(C)C(=O)CNC(=O)[C@@H]2CCCCN2C(=O)[C@H](NC(=O)c2nc3ccccc3cc2O)CNC(=O)[C@H](C(C)C)N(CC)C(=O)CN(C)C(=O)CNC(=O)[C@@H]2CCCCN2C(=O)[C@H](NC(=O)c2nc3ccccc3cc2O)CNC(=O)[C@@H]1C(C)C [Compound 147, N,N′-((7R,11S,19aS,26R,30S,38aS)-12,31-diethyl-11,30-diisopropyl-15,34-dimethyl-6,10,13,16,19,25,29,32,35,38-decaoxohexatriacontahydro-2H,6H-dipyrido[1,2-a:1′,2′-q][1,4,7,10,13,17,20,23,26,29]decaazacyclodotriacontine-7,26-diyl)bis(3-hydroxyquinoline-2-carboxamide)] | 17.9 min | 8.5 |  |
| CN1CC(=O)N2CCCCC[C@H]2C(=O)NC[C@@H](NC(=O)c2nc3ccccc3cc2O)C(=O)N2CCCC[C@H]2C(=O)NCC(=O)N(C)CC(=O)N2CCCCC[C@H]2C(=O)NC[C@@H](NC(=O)c2nc3ccccc3cc2O)C(=O)N2CCCC[C@H]2C(=O)NCC1=O [Compound 157, N,N′-((7R,10aS,23aS,30R,33aS,46aS)-19,42-dimethyl-6,10,17,20,23,29,33,40,43,46-decaoxotetratetracontahydro-6H,29H-bis(azepino) [1,2-j:1′,2′-z]dipyrido[1,2-a:1′,2′-q][1,4,7,10,13,17,20,23,26,29]decaazacyclodotriacontine-7,30-diyl)bis(3-hydroxyquinoline-2-carboxamide)] | 15.8 min | 7.1 |  |
| CN1CC(=O)N(C)[C@@H](C2CCCCC2)C(=O)NC[C@@H](NC(=O)c2nc3ccccc3cc2O)C(=O)N2CCCC[C@H]2C(=O)NCC(=O)N(C)CC(=O)N(C)[C@@H](C2CCCCC2)C(=O)NC[C@@H](NC(=O)c2nc3ccccc3cc2O)C(=O)N2CCCC[C@H]2C(=O)NCC1=O [Compound 162, N,N′-((7R,11S,19aS,26R,30S,38aS)-11,30-dicyclohexyl-12,15,31,34-tetramethyl-6,10,13,16,19,25,29,32,35,38-decaoxohexatriacontahydro-2H,6H-dipyrido[1,2-a:1′,2′-q][1,4,7,10,13,17,20,23,26,29]decaazacyclodotriacontine-7,26-diyl)bis(3-hydroxyquinoline-2-carboxamide)] | 20.7 min | 9.1 |  |
| CC[C@H](C)[C@H]1COC[C@@H](NC(=O)c2nc3ccccc3cc2O)C(=O)N2CCCC[C@H]2C(=O)NCC(=O)N(C)CC(=O)N(C)[C@@H](C(C)C)C(=O)NC[C@@H](NC(=O)c2nc3ccccc3cc2O)C(=O)N2CCCC[C@H]2C(=O)NCC(=O)N(C)CC(=O)N1C [Compound 197, N,N′-((7R,11S,19aS,26R,30S,38aS)-11-((S)-sec-butyl)-30-isopropyl-12,15,31,34-tetramethyl-6,13,16,19,25,29,32,35,38-nonaoxotetratriacontahydro-2H,6H,10H-dipyrido[2,1-b1: 2′,1′-l][1]oxa[4,7,10,13,17,20,23,26,29]nonaazacyclodotriacontine-7,26-diyl)bis(3-hydroxyquinoline-2-carboxamide)] | 19.4 min | 9.4 |  |
| Benzyl tert-butyl ((3aS,7R,13aS,22S,26R,32aS)-22-isopropyl-18,21,37-trimethyl-4,8,14,17,20,23,27,33,36,39-decaoxooctatriacontahydro-1H,10H-dipyrido[1,2-a:1′,2′-q]pyrrolo[1,2-j][1,4,7,10,13,17,20,23,26,29]decaazacyclodotriacontine-7,26-diyl)dicarbamate |  |  | 62% |
